Like-named read-outs stand apart in the source and are kept apart here.
Experiments:
[1] = system: secretion of ExoS by PAO1; experiment: Inhibition of T3SS-mediated effector secretion (ExoS Western blot); assay type: cell-based, Pseudomonas aeruginosa; conditions: PAO1 under low-calcium conditions; for inhibition of ExoS secretion: 100 μM
Method: Inhibition of T3SS-mediated effector secretion. For T3SS induction, PAO1 overnight cultures were diluted to an OD at 600 nm of 0.3 in LB containing 5 mM EGTA and 20 mM MgCl2, in the presence of tanshinone inhibitors ([…]), followed by an incubation with mild agitation of additional 3-4 hours until the cultures reached an OD value of 1.5. NC group were cultured in LB and 2% DMSO, PC group were cultured in LB containing 5 mM EGTA, 20 mM MgCl2 and 2% DMSO. Culture supernatant was collected by centrifugation at 4000 g for 15 min at 4° C. and secreted proteins were concentrated by adding ice-cold trichloroacetic acid to a final concentration of 10% (V/V). Following a 2 hours' incubation on ice, the pellets were washed twice with cold acetone and suspended in an SDS-PAGE sample buffer (with 2-mercaptoethanol) according to the BCA protein assay protocol. Secreted and total proteins (supernatant and pelleted bacteria) were analyzed by immunoblotting with an anti-ExoS antibody (Agrisera, AS05056, at 1:4000 dilution) and corresponding HRP-conjugated secondary antibody. The blots were semi-quantified using ImageJ 1.51 k (from http://imagej.nih.gov/ij). The results were expressed as the mean±SD percentage of secreted ExoS out of total ExoS of three independent experiments.

PAO1 [2] = experiment: Bacterial burden in bronchoalveolar lavage and lung histopathology, PAO1-infected mice; assay type: in vivo, C57BL/6J mice
Excerpt: (§1) Animal studies. 6-week-old female C57BL/6J mice used in this study were acquired from the Experimental Animal Center of Xian Jiaotong University. All the animals were maintained in animal care facilities in the School of Life Science and Technology, and provided with food and water ad libitum. The animal studies were approved by the Committee on Animal Research and Ethics, Xi'an Jiaotong University.
C57BL/6J mice were lightly anesthetized with inhaled sevoflurane and infected by intranasal instillation of PAO1 (1×10^7 CFU in 20 μL PBS) after lightly anesthetized with inhaled sevoflurane. Tanshinone inhibitors were administrated to the animals along with bacterial inoculation (100 μM, 1% DMSO). PBS containing 1% DMSO was used as mock treatment. 18 hours after infection, animals were sacrificed and bronchoalveolar lavages were collected and plated to obtain the bacterial counts in the lavages. The lungs of sacrificed mice were then isolated and fixed in 10% buffered formalin, paraffin embedded and hematoxylin-eosin-stained for histopathological examination. Pathological scores of the tissues were assigned according to the degree of inflammation.

[3] = system: intracellular PAO1 in J774A.1 cells; conditions: different concentrations, gentamicin at 2 h post infection
Method: Quantification of bacterial internalization. 5×10^4 J774a cells were seeded into each well of a 24-well plate and grown for 24 h before infection. One hour before the infection, cell culture medium was changed into serum-free medium and PAO-1 from mid-exponential phase was added to the cells at a multiplicity of infection (MOI) of 8. In the presence of different concentration of tanshinone inhibitors (0-100 μM compound, 2% DMSO), bacteria/cells mixtures were incubated for 2 hours and washed, then treated with gentamicin-containing (50 μg/ml) medium for another 2 hours before being lysed for plating. Internalized bacteria were defined as the total number of intracellular bacteria in cells (extracellular bacteria were killed by gentamicin, a cell-impermeable antibiotic). Results were normalized against the intracellular bacteria number by PAO-1-infected cells with mock treatment (2% DMSO). Average results of three independent experiments are shown as mean±SD.

PscE-PscG heterodimer [4] = target: T1, PscE-PscG heterodimer (Pseudomonas aeruginosa, UniProt P95435); assay type: binding; parameters: made in house; host or cells: total chemical synthesis (solid phase peptide synthesis and native chemical ligation), no expression host; conditions: FP competition with FAM-PscF69-85 for PscE-PscG
Method: Fluorescence polarization (FP) and FP-based competitive binding assays. All fluorescence polarization assays were done using black, low protein binding 96-well plates (Thermo Fisher Scientific) in a total volume of 100 μl per well of 10 mM Tris buffer containing 150 mM NaCl and 1 mM EDTA, pH 7.0, unless indicated otherwise. After a gentle mixing and incubation for 3 h, FP readings were taken at 470 nm (excitation) and 530 nm (emission) wavelengths on a Tecan Infinite M2000 fluorescence plate reader. Nonlinear regression analyses were performed to give rise to Kd and IC50 values as previously described.
For direct binding of PscF to PscG or PscE-PscG, equal volumes of FAM-PscF^69-85 (400 nM) and serially diluted PscG or PscE-PscG (0-64 μM) were mixed. For initial screening, 95 μl of FAM-PscF^69-85-PscE-PscG (100 nM) in the assay buffer was mixed with 5 μl of small molecule inhibitor in DMSO to a final molar concentration of 1, 10, 100, or 1000 μM. 5% DMSO and 6 M GuHCl in the final assay buffer were used as negative and positive controls, respectively. For secondary screening or competitive binding assays, 95 μl of FAM-PscF^69-85-PscE-PscG (100 nM) in the assay buffer was mixed with 5 μl of serially diluted PscF^69-85 or various tanshinone analogs (0-200 μM).
Target sequence in this assay (P95435 1-114): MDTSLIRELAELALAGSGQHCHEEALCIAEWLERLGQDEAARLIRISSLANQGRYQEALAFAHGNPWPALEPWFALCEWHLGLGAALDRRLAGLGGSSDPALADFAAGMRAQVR
Target sequence in this assay (Q9I317 whole entry, further chain): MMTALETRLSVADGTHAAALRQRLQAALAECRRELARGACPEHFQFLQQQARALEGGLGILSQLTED

[5] = target: T2, PscF^69-85-PscE-PscG complex (Pseudomonas aeruginosa, UniProt P95435); experiment: CD spectroscopy and thermal denaturation of the heterotrimer; conditions: for effect on helicity of the heterotrimeric complex: CD, 20 μM heterotrimer, 25° C., 10 mM phosphate buffer, pH 7.4
T2 construct: made in house; host or cells: total chemical synthesis (solid phase peptide synthesis and native chemical ligation), no expression host
T2 sequence (Q9I317 whole entry): as the sequence (Q9I317 whole entry, further chain) above
T2 sequence (P95435 2-115): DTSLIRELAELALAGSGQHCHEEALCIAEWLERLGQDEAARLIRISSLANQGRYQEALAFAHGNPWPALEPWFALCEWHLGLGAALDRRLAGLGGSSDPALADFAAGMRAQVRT
Method: Circular dichroism (CD) spectroscopy and thermal denaturation. […] Protein thermal denaturation was carried out in PBS using a JASCO circular dichroism spectrometer equipped with temperature controller. […] Under constant stirring, measurement was taken at one-degree interval between 25° C. and 90° C., at a heating rate of 1° C. per minute. After each 1-minute heating, the solution in the cuvette was waited for 20 s before signals were detected over a 16 s period. Heating and data acquisition were fully automated with the control software provided by JASCO. Data processing was performed as previously described.

[6] = system: cytotoxicity of PAO1 to murine macrophages (J774A.1); experiment: Cytoplasmic lactate dehydrogenase (LDH) release assay, PAO1-infected macrophages; assay type: cell-based, mouse; conditions: for inhibition of Pseudomonas aeruginosa-induced cell lysis (LDH release), words: different concentrations, MOI 8, 5 hours; for EC50: Mus musculus
Excerpt: Cytoplasmic lactate dehydrogenase (LDH) release assay. […] LDH released into supernatant was detected by LDH detection kit (Beyotime, C0017) as instructed by the manufacturer.

PAO1 [7] = experiment: Survival study, murine model of acute pneumonia; assay type: in vivo, C57BL/6J mice; conditions: for mice died of infection within 48 h, first treatment 8 h after challenge: mock-treated 85%
Method: as §1
For survival study, tanshinone inhibitors (100 μM, 1% DMSO, in 10 μL PBS) were administrated to the infected animals intranasally at the time of infection, or 8 h after infection, and every 12 hours till the death of the animal or the end of the experiment. PBS containing 1% DMSO was used as mock treatment.

PscE-PscG heterodimer [8] = target: T1, PscE-PscG heterodimer; experiment: 15N-1H HSQC NMR of 15N-PscG-PscE with dHTSN1; assay type: binding; parameters: inferred from the Ni-NTA purification; made in house; host or cells: PscG: E. coli (15N MOPS medium); PscE: chemical synthesis; conditions: molar ratio 1:1:1
Method: PscG was uniformly labeled with ^15N MOPS medium containing 1 g/L ^15NH4Cl as the sole source and BME vitamins (Sigma, USA). Cells were harvested by centrifugation at 6000 g for 30 min, resuspended in a lysis buffer containing 6 M urea, and subjected to a 1-min sonication, followed by two-cycle homogenization at 4° C. The lysates were centrifuged at 20,000 rpm for 30 min, and the supernatant was loaded onto a 10 ml Ni-NTA agarose column (Qiagen, USA). The elute was concentrated to 10-12 ml under denaturation conditions, followed by purification on a Sep-Pak C18 column. Peak fractions containing ^15N-PscG were lyophilized. […] The mixtures were dialyzed against the same buffer overnight and then concentrated to ˜300 μl.
All NMR samples were prepared in an NMR buffer containing 20 mM sodium phosphate (pH 7.4), 100 mM NaCl, 0.1% NaN3, 10% D2O and 2 mM DTT. The final protein concentrations were approximately 26 μM and 47.8 μM for ^15N-PscG-PscE and ^15N-PscG-PscE-dHTSN1 complexes, respectively. All NMR spectra were collected at 25° C. on a Bruker Avance 700 MHz spectrometer equipped with a triple-resonance pulse-field gradient probe. ^15N-^1H HSQC NMR spectra were recorded in the echo-antiecho mode for quadrature detection. All datasets were acquired with 2048 complex points in t2 and 256 complex points in t1.
Target sequence in this assay (Q9I317 whole entry): as the sequence (Q9I317 whole entry, further chain) above
Target sequence in this assay (P95435 whole entry): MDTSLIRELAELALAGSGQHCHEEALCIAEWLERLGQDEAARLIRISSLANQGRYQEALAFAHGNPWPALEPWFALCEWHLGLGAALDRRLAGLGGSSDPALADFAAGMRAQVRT

[9] = first intranasal dose 8 h after PAO1
[10] = J774.A1, read-out: EC50, LDH release normalized against PAO1 ΔpscC
[11] = J774.A1, normalized against mock-treated PAO1-infected cells, read-out: EC50, inhibition of PAO1 cytotoxicity to macrophages (LDH release)

Compound	activity in FP competition assay (PscE-PscG heterodimer [4])	inhibition of Pseudomonas aeruginosa-induced cell lysis (LDH release), words [6]	mice died of infection within 48 h, first treatment 8 h after challenge (PAO1 [7]; [9]) [%]	inhibition of ExoS secretion [1]	EC50 [6, 10] [µM]	EC50 [6, 11] [µM]	other results
CC(Oc1ccc(Cl)cc1Cl)C(=O)NCc1ccc2c(c1)OCO2 (stereo not shown) [MBX-1641, reference compound]	no effect	–	–	–	–	–	inhibition of ExoS secretion (MBX-1641) ([1]; 6.25 μM): inhibited; bacterial burden in bronchoalveolar lavage (PAO1 [2]; single dose 100 μM at time of infection, sampled 18 h post infection): reduced bacterial burden; inhibition of intracellular bacterial survival / proliferation of PAO1 in macrophages [3]: inhibited
Cc1coc2c1C(=O)C(=O)c1c-2ccc2c(C)cccc12 [TSN1, tanshinone 1]	–	inhibited Pseudomonas aeruginosa-induced cell lysis in a dose dependent manner	40	–	–	–	effect on helicity of the heterotrimeric complex [5]: reduced; effect on helicity of the heterotrimeric complex ([5]; listed as tanshinone 1): progressively decreases; effect on thermal stability of the heterotrimeric complex ([5]; added to preformed heterotrimer PscE-PscG-PscF^69-85): reduced; Tm of PscF^69-85-PscE-PscG complex in presence of compound ([5]; complex 20 μM in PBS, 300 μM tanshinone 1, CD at 222 nm, 54.8 in absence): 52.3 °C; protection of infected mice, treatment from time of infection (PAO1 [7]; 100 μM intranasal at time of infection and every 12 h): significantly protective
C[C@H]1COC2=C1C(=O)C(=O)c1c2ccc2c1CCCC2(C)C [crpTSN, cryptotanshinone, reference compound]	inactive	inactive	–	no inhibitory activity	–	–	–
Cc1cccc2c3c(ccc12)C1=C(C(=O)C3=O)[C@@H](C)CO1 [dHTSN1, dihydrotanshinone 1]	–	inhibited Pseudomonas aeruginosa-induced cell lysis in a dose dependent manner	5	more active than TSN1	~3	25	infected mice survived beyond 96 h, first treatment 8 h after challenge (PAO1 [7]; [9]): 80%; lung inflammation, H&E staining (PAO1 [2]; 18 h post infection): significantly reduced inflammation; interaction with 15N-PscG-PscE complex by NMR (PscE-PscG heterodimer [8]): relatively strong interactions
Cc1cccc2c3c(ccc12)C(=O)C1=C(OC[C@H]1C)C3=O [dHTSN]	–	inhibited Pseudomonas aeruginosa-induced cell lysis in a dose dependent manner	20	more active than TSN1	~3	12.5	–
Cc1coc2c1C(=O)C(=O)c1c-2ccc2c1CCCC2(C)C [tanshinone 2A]	inactive	–	–	–	–	–	–

From patent publication US20220008376A1, “INHIBITORS OF TYPE 3 SECRETION SYSTEM AND ANTIBIOTIC THERAPY” (priority 2018, published 2022)
